Molecules are shown by their SMILES.

This test deals with Patient-derived fibroblasts, cells from HD patient (ID 090401). Description: Reversal of the HD-signature (mitochondrial behaviour variables) by dynamic imaging of patient-derived fibroblasts. Format: cell-based, human. The note with it: for recovery (weighted overall rescue of the diseased phenotype, discriminant equation on 7 HD-signature variables): 30 min incubation, 0% = diseased status, 100% = healthy status. The protocol: Fibroblasts were labelled with MitoTracker green, a cell-permeant mitochondrial dye not sensitive to mitochondrial membrane potential, for 30 minutes. Images were recorded from an epifluorescence microscope continuously for 6 minutes. Cells were kept at 37° C. for the duration of the image capture. For each experimental condition, 3 to 15 cells were recorded per well from three independent plates, i.e. up to 6000 individual mitochondria. The maximum duration for data acquisition was 30 minutes (i.e. five cells observed during 6 min). Images were captured with a Zeiss Axioplan II microscope along three dimensions in space and in time.
Patient-derived fibroblasts were cultured in DMEM containing 15% fetal calf serum. and 0.5% DMSO, a concentration known to be inert on the mitochondrial behaviour.
Cells were incubated with different doses of resveratrol or cyclosporine A (CSA) diluted in DMSO or with the vehicle only (DMSO) for 30 minutes and observed through time-lapse video-microscopy for another 30 minutes during dynamic image capture.
Resveratrol and CSA were tested at 4 doses spanning […] (10, 1, 0.1 and 0.05 μM).
The negative control was cells from HD patient (ID 090401) with the vehicle only and the positive control was cells from healthy patient (ID 071201) with the vehicle only.
The raw data obtained for each mitochondrion were expressed as a ratio (%) according to the following formula: DATA=(NC−Var)*100/(NC−PC) (NC=average value of the negative control; PC=average value of the positive control; Var=value of the variable).
Effects are expressed as a percent of control values as defined above, i.e. % of phenotypic rescue. 0% represents the diseased status while 100% represents the healthy status.
To express the weighted effect of the variables on the overall rescue, a discriminant equation was applied.

Regarding `Oc1ccc(C=Cc2cc(O)cc(O)c2)cc1` [Resveratrol], the “recovery (weighted overall rescue of the diseased phenotype, discriminant equation on 7 HD-signature variables)” value is recorded as “detrimental effect with a mild worsening of the diseased status” (0.05 μM) and “exceeds the healthy status” (10 μM). For the same compound, for the setting “doses 10, 1, 0.1 and 0.05 μM”, the “overall effect / activity profile over the dose range (weighted dose-response on disease-modification)” value is “disease-modifying capabilities and rescue of the disease status except at low dose”.

Source of the values: patent US20160223526A1, “METHOD OF SCREENING FOR COMPOUNDS USEFUL IN THE TREATMENT OF HUNTINGTON DISEASE” (INNOVATIVE CONCEPTS IN DRUG DEVELOPMENT, priority 2013, published 2016).
